Data from the NIST ThermoML archive (doi:10.1016/j.jct.2007.11.009).

Experiment: xn = mol fraction of the nth substance listed
Conditions: 308.15 K, Liquid, Vibrating tube method

CCCCCCCC [octane] + c1ccccc1
mass density [kg/m3]
Conditions	x1 = 0.1097	x1 = 0.2036	x1 = 0.2984	x1 = 0.4069	x1 = 0.5027	x1 = 0.5904	x1 = 0.6989	x1 = 0.7964	x1 = 0.904	x1 = 1
100 kPa	828.4	803.9	783	762.6	747	734.5	720.8	709.9	699.3	690.8
2130 kPa	830.2	805.7	784.9	764.5	748.8	736.4	722.7	711.8	701.1	692.6
4150 kPa	832	807.5	786.7	766.3	750.7	738.2	724.5	713.7	703	694.4
6180 kPa	833.7	809.3	788.5	768.2	752.5	740	726.3	715.5	704.8	696.2
8210 kPa	835.5	811.1	790.3	770	754.3	741.8	728.1	717.2	706.5	698
10230 kPa	837.2	812.8	792	771.7	756.1	743.6	729.9	719	708.3	699.7
11250 kPa	838	813.7	792.9	772.6	756.9	744.4	730.7	719.8	709.1	700.5
12260 kPa	838.8	814.5	793.7	773.4	757.8	745.3	731.6	720.7	709.9	701.3
14290 kPa	840.5	816.2	795.4	775.1	759.5	747	733.2	722.3	711.6	703
16310 kPa	842.1	817.8	797	776.7	761.1	748.6	734.8	723.9	713.1	704.5
18340 kPa	843.7	819.5	798.7	778.4	762.7	750.2	736.5	725.5	714.8	706.1
20370 kPa	845.3	821	800.3	780	764.3	751.8	738	727.1	716.3	707.6
22390 kPa	846.8	822.6	801.8	781.5	765.8	753.3	739.6	728.6	717.8	709.1
24420 kPa	848.3	824.1	803.4	783.1	767.4	754.8	741.1	730.1	719.3	710.6
26450 kPa	849.8	825.6	804.9	784.6	768.9	756.3	742.6	731.6	720.8	712
28470 kPa	851.3	827.1	806.4	786	770.4	757.8	744	733	722.2	713.4
29490 kPa	852	827.8	807.1	786.8	771.1	758.5	744.8	733.7	722.9	714.1
30500 kPa	852.7	828.6	807.8	787.5	771.8	759.2	745.5	734.4	723.6	714.8
32530 kPa	854.2	830	809.2	788.9	773.2	760.7	746.9	735.8	725	716.2
34550 kPa	855.5	831.4	810.6	790.3	774.6	762	748.3	737.2	726.3	717.5
36580 kPa	856.9	832.8	812	791.7	776	763.4	749.6	738.5	727.7	718.8
38600 kPa	858.3	834.2	813.4	793.1	777.3	764.7	750.9	739.9	729	720.2
39620 kPa	859	834.9	814.1	793.7	778	765.4	751.6	740.6	729.7	720.8
